Results from patent publication US11963960B2 (Flash Therapeutics, LLC, priority 2020, dated 2024).

target: N-terminally GST-tagged HCK (75-526) (Homo sapiens (Human), UniProt P08631); test: HCK Kinase Assay (ProFluor Src-Family Kinase Assay); format: biochemical; conditions: not given
Procedure, shortened: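 ProFluor Src-family format: after the kinase reaction, protease solution was added for 60 min at room temperature (22-25° C), then stabilizer.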

Chain of N-terminally GST-tagged HCK (75-526) (P08631 75-526): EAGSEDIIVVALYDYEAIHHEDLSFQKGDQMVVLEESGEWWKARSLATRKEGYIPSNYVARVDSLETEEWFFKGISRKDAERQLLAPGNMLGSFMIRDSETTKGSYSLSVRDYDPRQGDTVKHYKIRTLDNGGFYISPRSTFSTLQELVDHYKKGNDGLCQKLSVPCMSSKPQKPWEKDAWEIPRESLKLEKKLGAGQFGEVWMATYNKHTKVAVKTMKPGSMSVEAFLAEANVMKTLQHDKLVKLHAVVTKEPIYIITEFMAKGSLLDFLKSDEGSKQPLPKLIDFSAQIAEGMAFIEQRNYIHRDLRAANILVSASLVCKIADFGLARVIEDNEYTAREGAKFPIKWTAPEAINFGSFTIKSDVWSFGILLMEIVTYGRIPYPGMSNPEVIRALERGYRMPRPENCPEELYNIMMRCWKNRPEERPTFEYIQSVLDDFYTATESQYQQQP

Structure (SMILES)	IC50
[2H]C([2H])([2H])N1CCN([C@H]2CC[C@H](n3cc(-c4ccc(Oc5ccccc5)cc4)c4c(N)ncnc43)CC2)CC1 (single isomer, unassigned) [Example 3, 7-((trans)-4-(4-(trideuteriomethyl)piperazin-1-yl)cyclohexyl)-5-(4-phenoxyphenyl)-7H-pyrrolo[2,3-d]pyrimidin-4-amine]	< 50 nM

same assay, conditions: 50 μM ATP; read-out: HCK IC50

Structure (SMILES)	IC50
C[C@@H]1CN([C@H]2CC[C@H](n3nc(-c4ccc(Oc5ccccc5)cc4F)c4c(N)ncnc43)CC2)CCN1 [Example 17, 3-(2-fluoro-4-phenoxyphenyl)-1-((trans)-4-((R)-3-methylpiperazin-1-yl)cyclohexyl)-1H-pyrazolo[3,4-d]pyrimidin-4-amine]	16.5 nM

same assay, conditions: HCK inhibitory activity, 50 μM ATP; read-out: HCK Activity

IC50	Structure (SMILES)
< 50 nM	C[C@@H]1CN([C@H]2CC[C@@H](n3cc(-c4ccc(Oc5ccccc5)cc4)c4c(N)ncnc43)CC2)CCN1C [Example 24, 7-((cis)-4-((R)-3,4-dimethylpiperazin-1-yl)cyclohexyl)-5-(4-phenoxyphenyl)-7H-pyrrolo[2,3-d]pyrimidin-4-amine]
< 50 nM	CC(C)(O)CN1CCN([C@H]2CC[C@H](n3cc(-c4ccc(Oc5ccccc5)cc4)c4c(N)ncnc43)CC2)CC1 [Example 89, 1-(4-((trans)-4-(4-amino-5-(4-phenoxyphenyl)-7H-pyrrolo[2,3-d]pyrimidin-7-yl)cyclohexyl)piperazin-1-yl)-2-methylpropan-2-ol]
< 50 nM	CN1CCN([C@H]2CC[C@H](n3cc(-c4ccc(Oc5ccccc5)cc4)c4c(N)ncnc43)CC2)CC1CO (stereo partly drawn) [Example 33, (4-((trans)-4-(4-amino-5-(4-phenoxyphenyl)-7H-pyrrolo[2,3-d]pyrimidin-7-yl)cyclohexyl)-1-methylpiperazin-2-yl)methanol]
50 to 250 nM	Nc1ncnc2c1c(-c1ccc(Oc3ccccc3)cc1)cn2[C@H]1CC[C@@H](N2C[C@@H](O)[C@@H](O)C2)CC1 [Example 76, (3R,4S)-1-((cis)-4-(4-amino-5-(4-phenoxyphenyl)-7H-pyrrolo[2,3-d]pyrimidin-7-yl)cyclohexyl)pyrrolidine-3,4-diol]
< 50 nM	CN(C)[C@@H]1CCCN([C@H]2CC[C@H](n3cc(-c4ccc(Oc5ccccc5)cc4)c4c(N)ncnc43)CC2)C1 [Example 62, 7-((trans)-4-((R)-3-(dimethylamino)piperidin-1-yl)cyclohexyl)-5-(4-phenoxyphenyl)-7H-pyrrolo[2,3-d]pyrimidin-4-amine]
< 50 nM	C[C@H]1CN([C@H]2CC[C@@H](n3cc(-c4ccc(Oc5ccccc5)cc4)c4c(N)ncnc43)CC2)CCN1 [Example 20, 7-((cis)-4-((S)-3-methylpiperazin-1-yl)cyclohexyl)-5-(4-phenoxyphenyl)-7H-pyrrolo [2,3-d]pyrimidin-4-amine]
< 50 nM	Nc1ncnc2c1c(-c1ccc(Oc3ccccc3)cc1)cn2[C@H]1CC[C@H](N2CCC[C@H](N)C2)CC1 [Example 56, 7-((trans)-4-((S)-3-aminopiperidin-1-yl)cyclohexyl)-5-(4-phenoxyphenyl)-7H-pyrrolo[2,3-d]pyrimidin-4-amine]
< 50 nM	CN[C@@H]1CCCN([C@H]2CC[C@H](n3cc(-c4ccc(Oc5ccccc5)cc4)c4c(N)ncnc43)CC2)C1 [Example 60, 7-((trans)-4-((R)-3-(methylamino)piperidin-1-yl)cyclohexyl)-5-(4-phenoxyphenyl)-7H-pyrrolo[2,3-d]pyrimidin-4-amine]
50 to 250 nM	CP1(=O)CCN([C@H]2CC[C@H](n3cc(-c4ccc(Oc5ccccc5)cc4)c4c(N)ncnc43)CC2)CC1 [Example 67, 1-((trans)-4-(4-amino-5-(4-phenoxyphenyl)-7H-pyrrolo[2,3-d]pyrimidin-7-yl)cyclohexyl)-4-methyl-1,4-azaphosphinane 4-oxide]
< 50 nM	CC1CN([C@H]2CC[C@H](n3cc(-c4ccc(Oc5ccccc5)cc4)c4c(N)ncnc43)CC2)CCN1C (stereo partly drawn) [Example 22, 7-((trans)-4-(3,4-dimethylpiperazin-1-yl)cyclohexyl)-5-(4-phenoxyphenyl)-7H-pyrrolo[2,3-d]pyrimidin-4-amine]

The remaining lines, values behind:

Structure (SMILES)	IC50
COc1cc(-c2cn([C@H]3CC[C@H](N4CCN[C@@H](C)C4)CC3)c3ncnc(N)c23)ccc1Oc1ccccc1 [Example 134, 5-(3-Methoxy-4-phenoxyphenyl)-7-((trans)-4-((S)-3-methylpiperazin-1-yl)cyclohexyl)-7H-pyrrolo[2,3-d]pyrimidin-4-amine]	< 50 nM
CN1CCN([C@H]2CC[C@H](n3nc(-c4c(F)cc(Oc5ccccc5)cc4F)c4c(N)ncnc43)CC2)CC1 [Example 107, 3-(2,6-difluoro-4-phenoxyphenyl)-1-((trans)-4-(4-methylpiperazin-1-yl)cyclohexyl)-1H-pyrazolo[3,4-d]pyrimidin-4-amine]	< 50 nM
C[C@@H]1CN([C@H]2CC[C@H](n3nc(-c4ccc(Oc5ccccc5)cc4F)c4c(N)ncnc43)CC2)CCN1 [Example 17, 3-(2-fluoro-4-phenoxyphenyl)-1-((trans)-4-((R)-3-methylpiperazin-1-yl)cyclohexyl)-1H-pyrazolo[3,4-d]pyrimidin-4-amine]	< 50 nM
CCc1cc(NC(=O)Nc2ccc(-c3cn([C@H]4CC[C@H](N5CCN(C)CC5)CC4)c4ncnc(N)c34)cc2)no1 [Example 117, 1-(4-(4-amino-7-((trans)-4-(4-methylpiperazin-1-yl)cyclohexyl)-7H-pyrrolo[2,3-d]pyrimidin-5-yl)phenyl)-3-(5-ethylisoxazol-3-yl)urea]	50 to 250 nM
Nc1ncnc2c1c(-c1ccc(Oc3ccccc3)cc1)cn2[C@H]1CC[C@@H](N2CCNCC2=O)CC1 [Example 91, 1-((cis)-4-(4-Amino-5-(4-phenoxyphenyl)-7H-pyrrolo[2,3-d]pyrimidin-7-yl)cyclohexyl)piperazin-2-one]	50 to 250 nM
CN1CCN([C@H]2CC[C@H](c3cc(-c4ccc(Oc5ccccc5)cc4)c4c(N)ncnn43)CC2)CC1 [Example 168, 7-((trans)-4-(4-Methylpiperazin-1-yl)cyclohexyl)-5-(4-phenoxyphenyl)pyrrolo[2,1-f][1,2,4]triazin-4-amine]	< 50 nM
Nc1ncnc2c1c(-c1ccc(Oc3ccccc3)cc1)cn2C1CCC(N2CC3CCC2CN3)CC1 (centres unmarked) [Example 37, 7-(4-(2,5-diazabicyclo[2.2.2]octan-2-yl)cyclohexyl)-5-(4-phenoxyphenyl)-7H-pyrrolo[2,3-d]pyrimidin-4-amine]	< 50 nM
C[C@H]1CN([C@H]2CC[C@@H](n3cc(-c4ccc(NC(=O)Nc5cc(C(C)(C)C)on5)cc4)c4c(N)ncnc43)CC2)CCN1 [Example 130, 1-(4-(4-amino-7-((cis)-4-((S)-3-methylpiperazin-1-yl)cyclohexyl)-7H-pyrrolo[2,3-d]pyrimidin-5-yl)phenyl)-3-(5-(tert-butyl)isoxazol-3-yl)urea]	50 to 250 nM
CN1CCN([C@H]2CC[C@H](c3nc(-c4ccc(Oc5ccccc5)cc4)c4c(N)nccn43)CC2)CC1 [Example 173, 3-((trans)-4-(4-Methylpiperazin-1-yl)cyclohexyl)-1-(4-phenoxyphenyl)imidazo[1,5-a]pyrazin-8-amine]	< 50 nM
C[C@H]1CN([C@H]2CC[C@@H](c3nc(-c4ccc(Oc5ccccc5)cc4F)c4c(N)ncnn43)CC2)CCN1 [Example 166, 5-(2-fluoro-4-phenoxyphenyl)-7-((cis)-4-((S)-3-methylpiperazin-1-yl)cyclohexyl)imidazo[5,1-f][1,2,4]triazin-4-amine]	250 to 10000 nM
CN(C)[C@H]1CN([C@H]2CC[C@@H](n3cc(-c4ccc(Oc5ccccc5)cc4)c4c(N)ncnc43)CC2)C[C@H]1O [Example 72, (3R,4S)-1-((cis)-4-(4-amino-5-(4-phenoxyphenyl)-7H-pyrrolo[2,3-d]pyrimidin-7-yl)cyclohexyl)-4-(dimethylamino)pyrrolidin-3-ol]	< 50 nM
Nc1ncnc2c1c(-c1ccc(Oc3ccccc3)cc1)cn2[C@H]1CC[C@H](NC2CNC2)CC1 [Example 83, 7-((trans)-4-(azetidin-3-ylamino)cyclohexyl)-5-(4-phenoxyphenyl)-7H-pyrrolo[2,3-d]pyrimidin-4-amine]	50 to 250 nM
Nc1ncnc2c1c(-c1ccc(Oc3ccccc3)cc1)cn2[C@H]1CC[C@H](N2CCS(=O)(=O)CC2)CC1 [Example 65, 4-((trans)-4-(4-amino-5-(4-phenoxyphenyl)-7H-pyrrolo[2,3-d]pyrimidin-7-yl)cyclohexyl)thiomorpholine 1,1-dioxide]	50 to 250 nM
NC(=O)C=C1CCC(n2cc(-c3ccc(Oc4ccccc4)cc3)c3c(N)ncnc32)CC1 (centres unmarked) [Example 94, 2-(4-(4-Amino-5-(4-phenoxyphenyl)-7H-pyrrolo[2,3-d]pyrimidin-7-yl)cyclohexylidene)acetamide]	< 50 nM
Nc1ncnc2c1c(-c1ccc(Oc3ccccc3)cc1)cn2C1CCC2(CCNCC2)CC1 [Example 141, 5-(4-phenoxyphenyl)-7-(3-azaspiro[5.5]undecan-9-yl)-7H-pyrrolo[2,3-d]pyrimidin-4-amine]	< 50 nM
CN1CCN([C@H]2CC[C@@H](c3cc(-c4ccc(Oc5ccccc5)cc4)c4c(N)ncnn43)CC2)CC1 [Example 167, 7-((cis)-4-(4-Methylpiperazin-1-yl)cyclohexyl)-5-(4-phenoxyphenyl)pyrrolo[2,1-f][1,2,4]triazin-4-amine]	250 to 10000 nM
Nc1ncnc2c1c(-c1ccc(Oc3ccccc3)cc1)cn2[C@H]1CC[C@H](N2CCNCC2=O)CC1 [Example 90, 1-((trans)-4-(4-Amino-5-(4-phenoxyphenyl)-7H-pyrrolo[2,3-d]pyrimidin-7-yl)cyclohexyl)piperazin-2-one]	< 50 nM
CN1CCN([C@H]2CC[C@H](n3c(Br)c(-c4ccc(Oc5ccccc5)cc4)c4c(N)ncnc43)CC2)CC1 [Example 86, 6-Bromo-7-((trans)-4-(4-methylpiperazin-1-yl)cyclohexyl)-5-(4-phenoxyphenyl)-7H-pyrrolo[2,3-d]pyrimidin-4-amine]	50 to 250 nM
Nc1ncnc2c1c(-c1ccc(Oc3ccccc3)cc1)cn2C1CCC(O)(Cn2cnnn2)CC1 (centres unmarked) [Example 102, 1-((1H-Tetrazol-1-yl)methyl)-4-(4-amino-5-(4-phenoxyphenyl)-7H-pyrrolo[2,3-d]pyrimidin-7-yl)cyclohexanol]	< 50 nM
CN1CCC2(CCC(n3cc(-c4ccc(Oc5ccccc5)cc4)c4c(N)ncnc43)CC2)CC1 [Example 142, 7-(3-methyl-3-azaspiro[5.5]undecan-9-yl)-5-(4-phenoxyphenyl)-7H-pyrrolo[2,3-d]pyrimidin-4-amine]	< 50 nM
